Laboratory results published in patent publication US8017633B2, “Roflumilast for the treatment of diabetes mellitus” (Nycomed GmbH, priority 2005, dated 2011).

How the values were obtained:
[1] = system: C57BLKS db/db mice; assay: Daily food intake of db/db mice during once-daily oral treatment; format: in vivo, mouse
Protocol: (§1) Female C57BLKS db/db mice obtained from M&B A/S (8680 Ry, Denmark) were used in the studies at 10 to 11 weeks of age. Mice were housed 10 per cage and allowed free access to water and standard laboratory diet for rodents (chow 3433, Provimi Kliba SA, 4303 Kaiseraugst, Switzerland).
(§2) Mice were treated with vehicle, Roflumilast or Roflumilast-N-Oxide, respectively once daily in the morning. Roflumilast or Roflumilast-N-Oxide was suspended in 4% methocel and applied via oral gavage using oral feeding & dosing needles (outer diameter: 1.5 mm, TSE GmbH, 61350 Bad Homburg, Germany). A volume of 10 ml/kg body weight was administered for each dose.
(§3) The daily intake of food (chow 3433) and water was measured per animal (total daily intake of food divided by the number of animals) before and during the treatment with Roflumilast or Roflumilast-N-Oxide.

[2] = system: C57BLKS db/db mice; assay: Daily water intake of db/db mice during once-daily oral treatment; format: in vivo, mouse; conditions: 1 mg/kg group
Protocol: as §1, §2, §3

## O=C(Nc1c(Cl)c[n+]([O-])cc1Cl)c1ccc(OC(F)F)c(OCC2CC2)c1 [Rof-N-Oxide, 3-cyclopropylmethoxy-4-difluoromethoxy-N-(3,5-dichloro-1-oxido-pyridin-4-yl)benzamide]
[1]; 1 mg/kg group, Day −1, before first application
  Daily food intake before the first application: 6.4 g per mouse
[1]; 1 mg/kg group, Day −2, before first application
  Daily food intake before the first application: 6.4 g per mouse
[1]; 1 mg/kg group, Day −3, before first application
  Daily food intake before the first application: 6.4 g per mouse
[1]; 1 mg/kg group, Day −4, before first application
  Daily food intake before the first application: 5.9 g per mouse
[1]; 1 mg/kg group, Day −5, before first application
  Daily food intake before the first application: 6.0 g per mouse
[1]; 1 mg/kg oral once daily, Day 1
  Daily food intake on the days of application: 5.4 g per mouse
[1]; 1 mg/kg oral once daily, Day 2
  Daily food intake on the days of application: 5.4 g per mouse
[1]; 1 mg/kg oral once daily, Day 3
  Daily food intake on the days of application: 5.8 g per mouse
[1]; 1 mg/kg oral once daily, Day 4
  Daily food intake on the days of application: 5.5 g per mouse
[1]; 1 mg/kg oral once daily, Day 5
  Daily food intake on the days of application: 5.6 g per mouse
[1]; 1 mg/kg oral once daily, Day 6
  Daily food intake on the days of application: 5.8 g per mouse
[1]; 1 mg/kg oral once daily, Day 7
  Daily food intake on the days of application: 5.4 g per mouse
[1]; 1 mg/kg oral once daily, Day 8
  Daily food intake on the days of application: 5.5 g per mouse
[1]; 3 mg/kg group, Day −1, before first application
  Daily food intake before the first application: 6.1 g per mouse
[1]; 3 mg/kg group, Day −2, before first application
  Daily food intake before the first application: 6.1 g per mouse
[1]; 3 mg/kg group, Day −3, before first application
  Daily food intake before the first application: 6.4 g per mouse
[1]; 3 mg/kg group, Day −4, before first application
  Daily food intake before the first application: 6.4 g per mouse
[1]; 3 mg/kg group, Day −5, before first application
  Daily food intake before the first application: 5.5 g per mouse
[1]; 3 mg/kg oral once daily, Day 1
  Daily food intake on the days of application: 4.9 g per mouse
[1]; 3 mg/kg oral once daily, Day 2
  Daily food intake on the days of application: 4.9 g per mouse
[1]; 3 mg/kg oral once daily, Day 3
  Daily food intake on the days of application: 4.5 g per mouse
[1]; 3 mg/kg oral once daily, Day 4
  Daily food intake on the days of application: 4.5 g per mouse
[1]; 3 mg/kg oral once daily, Day 5
  Daily food intake on the days of application: 4.6 g per mouse
[1]; 3 mg/kg oral once daily, Day 6
  Daily food intake on the days of application: 4.9 g per mouse
[1]; 3 mg/kg oral once daily, Day 7
  Daily food intake on the days of application: 4.3 g per mouse
[1]; 3 mg/kg oral once daily, Day 8
  Daily food intake on the days of application: 4.2 g per mouse
[1]; 10 mg/kg group, Day −1, before first application
  Daily food intake before the first application: 6.5 g per mouse
[1]; 10 mg/kg group, Day −2, before first application
  Daily food intake before the first application: 6.4 g per mouse
[1]; 10 mg/kg group, Day −3, before first application
  Daily food intake before the first application: 6.4 g per mouse
[1]; 10 mg/kg group, Day −4, before first application
  Daily food intake before the first application: 6.2 g per mouse
[1]; 10 mg/kg group, Day −5, before first application
  Daily food intake before the first application: 6.0 g per mouse
[1]; 10 mg/kg oral once daily, Day 1
  Daily food intake on the days of application: 2.9 g per mouse
[1]; 10 mg/kg oral once daily, Day 2
  Daily food intake on the days of application: 3.3 g per mouse
[1]; 10 mg/kg oral once daily, Day 3
  Daily food intake on the days of application: 3.5 g per mouse
[1]; 10 mg/kg oral once daily, Day 4
  Daily food intake on the days of application: 2.9 g per mouse
[1]; 10 mg/kg oral once daily, Day 5
  Daily food intake on the days of application: 3.0 g per mouse
[1]; 10 mg/kg oral once daily, Day 6
  Daily food intake on the days of application: 3.1 g per mouse
[1]; 10 mg/kg oral once daily, Day 7
  Daily food intake on the days of application: 2.6 g per mouse
[1]; 10 mg/kg oral once daily, Day 8
  Daily food intake on the days of application: 3.8 g per mouse
[1]; 30 mg/kg group, Day −1, before first application
  Daily food intake before the first application: 6.3 g per mouse
[1]; 30 mg/kg group, Day −2, before first application
  Daily food intake before the first application: 6.2 g per mouse
[1]; 30 mg/kg group, Day −3, before first application
  Daily food intake before the first application: 6.5 g per mouse
[1]; 30 mg/kg group, Day −4, before first application
  Daily food intake before the first application: 6.4 g per mouse
[1]; 30 mg/kg group, Day −5, before first application
  Daily food intake before the first application: 5.8 g per mouse
[1]; 30 mg/kg oral once daily, Day 1
  Daily food intake on the days of application: 1.4 g per mouse
[1]; 30 mg/kg oral once daily, Day 2
  Daily food intake on the days of application: 0.9 g per mouse
[1]; 30 mg/kg oral once daily, Day 3
  Daily food intake on the days of application: 1.2 g per mouse
[1]; 30 mg/kg oral once daily, Day 4
  Daily food intake on the days of application: 0.8 g per mouse
[1]; 30 mg/kg oral once daily, Day 5
  Daily food intake on the days of application: 0.9 g per mouse
[1]; 30 mg/kg oral once daily, Day 6
  Daily food intake on the days of application: 1.1 g per mouse
[1]; 30 mg/kg oral once daily, Day 7
  Daily food intake on the days of application: 0.7 g per mouse
[1]; 30 mg/kg oral once daily, Day 8
  Daily food intake on the days of application: 0.6 g per mouse
[1]; db/db mice, treatment once daily oral
  Effect on daily food intake (summary in words): reduce in a dose-dependent manner
[2]; Day −1, before first application
  Daily water intake before the first application: 8.6 g per mouse
[2]; Day −2, before first application
  Daily water intake before the first application: 7.9 g per mouse
[2]; Day −3, before first application
  Daily water intake before the first application: 8.4 g per mouse
